Measured values taken from PMC6858451, “Rhesus Theta Defensin 1 Promotes Long Term Survival in Systemic Candidiasis by Host Directed Mechanisms” (Scientific Reports, 2019).
“Also recorded” adds a separate entry of the source. Bridge positions count the residues as written; N and C are the ends. Peptide text beside a SMILES is read from it.

Columns and labels:
C. albicans 53264 [1] = test: Kinetics of candidacidal activity, liquid suspension assay; assay type: cell-based; conditions: PIPES-glucose buffer
Protocol: (§1) Kinetics of RTD-1 candidacidal activity was determined at peptide concentrations ranging from 0 to 10 µg/ml using a liquid suspension assay described previously. Overnight cultures of C. albicans 53264 or 43001 were grown to mid-log phase in 5% yeast peptone dextrose broth (YPD) (Difco) at 30 °C. Approximately 2 × 10^6 CFU/ml were incubated with 0, 0.3, 1, 3 and 10 µg/ml RTD-1 or 10 µg/ml caspofungin, suspended in 10 mM PIPES, pH 7.4, plus 5 mM glucose (PG), in 96-well plates with shaking at 60 RPM at 37 °C. At timed intervals, samples were diluted 1:1000 fold into PG buffer and aliquots plated onto YPD agar plates (TekNova), and surviving organisms quantified by colony counting after incubation for 24 h at 30 °C.

C. albicans 43001 = test: as above; assay type: cell-based; conditions: PIPES-glucose buffer
Protocol: as §1

[2] = tested on: C. albicans SC5314 biofilms; test: Biofilm XTT metabolic assay; assay type: cell-based
Protocol: The antifungal activities of RTD-1, caspofungin and fluconazole were evaluated against biofilms of C. albicans SC5314 and 53264 essentially as described by Pierce et al.[67]. Briefly, biofilms established for 0 h (preadhesion), 2 h (adherent), or 24 h (mature) were developed by adding 1 × 10^5 yeast cells in 50 or 100 µl of RPMI-1640 to wells of flat-bottom 96-well microtiter plates (Costar, Corning, NY). Fifty or 100 µl aliquots of serial 2-fold dilutions of peptide or antifungal drugs were added to wells in triplicate and incubated for 24 h or 48 h prior to analysis of biofilm metabolic activities. Concentrations of reagents used were as follows: RTD-1 - 0.09 – 100 µg/ml (0.05–48 µM), Fluco – 1–250 µg/ml (3.3–816.3 µM); Caspo- 0.003–8 µg/ml ([…]–7.3 µM). Analysis of the effect of each agent on Candida biofilms was performed using an XTT colorimetric assay. One hundred µl of 1 µM XTT/menadione added to each biofilm well, plates were incubated in the dark for 3 h at 37 °C, and 80 µl of supernatant was transferred to a new 96-well flat-bottom microtiter plate (Greiner Bio-one, Monroe, NC). Absorbance was measured at 490 nm on a SpectraMax® i3x (Molecular Devices). Readings were plotted as average of triplicates after subtracting the corresponding values for negative controls (XTT/menadione only).

C. albicans SC5314 = test: Systemic candidiasis model, survival and renal fungal burden; assay type: in vivo, BALB/c mice
Protocol: The efficacy of RTD-1 in vivo was evaluated in an established model of systemic candidiasis using C. albicans SC5314. Both immunocompetent and immunosuppressed mouse models are employed in preclinical studies of systemic candidiasis. Since many of our preliminary studies employed the […] model, we conducted efficacy studies with RTD-1 and reference antifungal drugs in immunocompetent BALB/c mice. Mice were challenged i.v. with 3 × 10^5 blastospores at T = 0, which rapidly produces disseminated candidiasis and colonizes major organs in a manner resembling systemic candidiasis in humans. […] We analyzed the effect of a single 5 mg/kg dose of RTD-1 administered i.v., s.c., or i.p. immediately after i.v. fungal challenge, with i.p. saline as vehicle control. Fluco and Caspo, administered i.p. at 5 mg/kg, were used as drug comparators. […] In subsequent studies, antifungal agents were administered i.p. to circumvent potentially confounding effects resulting from treatment by the same route as infection, which was i.v. in all experiments.
(§2) BALB/c female mice (7–8 weeks old) and CD-1 female mice (4–5 weeks old) were obtained from Charles River Laboratories and allocated randomly in groups of five mice per cage. Mice were maintained on a 12 h light/dark cycle in thermostatically controlled rooms for the duration of the experiment. C. albicans inocula were prepared fresh each day from saturated cultures grown overnight in YPD medium, washed in sterile PBS, and fungi were counted with hemocytometer. Stock suspensions were prepared in sterile PBS. BALB/c mice were challenged with 2 × 10^6 CFU/ml wild-type C. albicans reference strain SC5314, while CD-1 mice were challenged with 1.8 × 10^7 CFU/ml (0.15–0.2 ml) C. albicans clinical isolate 53264 by i.v. injection into the lateral caudal tail vein using a 28 G 1/2 inch needle. Animals were treated by i.v., s.c., or i.p. routes immediately post-infection (p.i.) or 24 h p.i. with sterile saline (control), RTD-1, fluconazole, or caspofungin administered at the concentrations indicated in a 0.200 ml. Mice were weighted and monitored daily for general clinical condition. Mice were euthanized as approved by the USC IACUC and in compliance with the National Institutes of Health Guide for the Care and Use of Laboratory Animals. All experiments were repeated at least three times.
(§3) To assess systemic fungal clearance, renal fungal burden was determined. Mice were euthanized at times indicated, and both kidneys were weighed, homogenized in 5 ml of sterile PBS, and serial dilutions of homogenate were plated on YPD agar plates and incubated at 30 °C for 2 days. CFU per gram of kidney was calculated.

C. albicans 53264 [3] = test: Systemic MDR candidiasis model, survival and renal fungal burden; assay type: in vivo, CD-1 mice; conditions: for survival (log-rank): 1.8 × 10^7 blastospores i.v., 40 days
Protocol: (as in Fig. 3d). CD-1, rather than BALB/c mice were used in the C. albicans 53264 challenge studies as this mouse strain was employed by Wiederhold et al. in the assessment of caspofungin efficacy against this pathogen. […] Fungal burdens were determined in kidneys of long term survivors in the RTD-1, Caspo, and Fluco-treated cohorts (euthanized at day 40) and from moribund mice from the survival study in Fig. 7a.
as §2, §3

[4] = 5 mg/kg i.p. once a day for 7 days, first dose 24 h after infection, 30 d
[5] = 5 mg/kg i.p. once per day for 7 days beginning 24 h p.i.
[6] = 3 µg/ml, by 30 min of incubation

| SMILES | fungicidal activity, time-kill (C. albicans 53264 [1]; 10 µg/ml, 0–60 min) | fungicidal activity, time-kill (C. albicans 43001; 10 µg/ml, 0–60 min) | biofilm inhibition (XTT) ([2]; 2- and 24 h biofilms) | survival (C. albicans SC5314; [4]) | survival (C. albicans SC5314; single 5 mg/kg dose at T = 0 (RTD-1 i.v., s.c. or i.p.; Fluco, Caspo i.p.), 3 × 10^5 blastospores i.v., 30 days, vs saline, 5 mg/kg) | survival (log-rank) (C. albicans 53264 [3]; [5]) | fungicidal activity, time-kill (C. albicans 53264 [1]; [6]) | fungicidal activity, time-kill (C. albicans 43001; [6]) | biofilm inhibition (XTT) ([2]; pre-adhesion, 2 h adherent and 24 h mature biofilms) | kidneys with no culturable organisms detected (C. albicans SC5314; long term survivors, day 30 p.i.) [%] | kidney fungal burden (CFU/g) (C. albicans SC5314; long term survivors, day 30 p.i., treated i.p. at T = 0, vs moribund saline treated mice) | survival (C. albicans SC5314; single 5 mg/kg dose at T = 0 (RTD-1 i.v., s.c. or i.p.; Fluco, Caspo i.p.), 3 × 10^5 blastospores i.v., 30 days, vs saline) | kidney fungal burden (CFU/g) (C. albicans SC5314; single 5 mg/kg i.p. at T = 0, by day 3 p.i., vs saline) | survival (C. albicans SC5314; single i.p. 5 mg/kg, administration delayed 24 h or 72 h (data not shown)) | survival (C. albicans SC5314; single i.p. 5 mg/kg, treatment delayed 1, 3 or 6 h after infection) | survival (C. albicans SC5314; single i.p. dose 20 mg/kg at T = 0, vs saline) | survival (C. albicans SC5314; single i.p. dose 10 and 20 mg/kg at T = 0, compared with 5 mg/kg Fluco) | survival (C. albicans SC5314; single i.p. dose at T = 0, all doses of 0.1–20 mg/kg except 0.1 and 20 mg/kg, vs saline) | survival endpoint analysis (χ2) at day 40 p.i. (C. albicans 53264 [3]; [5]) | kidney fungal burden (CFU/g) (C. albicans 53264 [3]; long term survivors, day 40, vs moribund saline controls) |
| --- | --- | --- | --- | --- | --- | --- | --- | --- | --- | --- | --- | --- | --- | --- | --- | --- | --- | --- | --- | --- |
| CC[C@H](C)C[C@H](C)CCCCCCCCC(=O)N[C@H]1C[C@@H](O)[C@@H](NCCN)NC(=O)[C@@H]2[C@@H](O)CCN2C(=O)[C@H]([C@H](O)CCN)NC(=O)[C@H]([C@H](O)[C@@H](O)c2ccc(O)cc2)NC(=O)[C@@H]2C[C@@H](O)CN2C(=O)[C@H]([C@@H](C)O)NC1=O [Caspo, caspofungin] | very little activity | very little activity | reduced at concentrations >2 µg/ml | markedly enhanced survival | effective in enhancing survival; also recorded: superior to RTD-1 and Fluco treatment | significantly (P < 0.0001) improved survival |  |  |  |  |  |  |  |  |  |  |  |  |  |  |
| CC[C@H](C)[C@@H]1NC(=O)[C@@H]2CSSC[C@H](NC(=O)[C@H](CCCNC(=N)N)NC(=O)[C@@H]3CSSC[C@H](NC1=O)C(=O)N[C@@H]([C@@H](C)O)C(=O)N[C@@H](CCCNC(=N)N)C(=O)NCC(=O)N[C@@H](Cc1ccccc1)C(=O)N3)C(=O)N[C@@H](CC(C)C)C(=O)N[C@H]1CSSC[C@H](NC(=O)[C@H](C(C)C)NC(=O)CNC(=O)[C@H](CCCNC(=N)N)NC(=O)[C@H](CCCNC(=N)N)NC1=O)C(=O)N[C@@H](CCCNC(=N)N)C(=O)N2 [RTD-1, Rhesus theta (θ) defensin-1] (cyclo(GFCRCLCRRGVCRCICTR); disulfide 3-16, 5-14, 7-12 (inferred); ring closure inferred) |  |  | much more effective than Fluco | markedly enhanced survival; also recorded: more effective in enhancing survival than Fluco, and was nearly equivalent to Caspo |  | significantly (P < 0.0001) improved survival; also recorded: superior to Caspo (P = 0.029) but not Fluco | sterilized the incubation mixture | sterilized the incubation mixture | inhibited biofilms of drug sensitive SC5314 at each time point, but less effectively than Caspo | 50 | markedly reduced kidney fungal burden; also recorded: substantially more effective than treatment with Fluco | significantly enhanced survival regardless of the routes of administration | markedly reduced fungal burden | no survival enhancement | enhanced survival compared to saline control | significantly accelerates death | less effective than Fluco | enhanced survival significantly | superior to Fluco (P = 0.01) and Caspo (P = 0.001) | significantly (P = 4.1 × 10^−5) reduced fungal burden |
